# Like-named read-outs stand apart in the source and are kept apart here.
# Columns and labels:
# HepG2 cells = format: cell-based; conditions: human, 2 day
# Procedure: Three lead compounds were identified in the first round of high throughput screening (700 compounds), which had minimal inhibitory concentrations (MIC) of 0.4-0.8 μg/mL after a six day exposure to drug (NRd6) in the model of non-replication at pH 5.0, and LD50's of 100 to >100 μg/mL against HepG2 cells (a 2 day exposure).
# Furthermore, LD50 values were determined using a human hepatoma cell line (HepG2) using intracellular ATP levels as a measurement that correlated with cellular viability.
# [1] = tested on: non-replicating M. tuberculosis; assay: microbe, parasite or virus in culture; format: cell-based, Mycobacterium tuberculosis; conditions: Mycobacterium tuberculosis
# [2] = tested on: replicating M. tuberculosis; assay: MIC under replication (R) conditions; format: cell-based, Mycobacterium tuberculosis; conditions: Mycobacterium tuberculosis
# [3] = read-out: MIC NR at 0.01 Inoc. and 3 Day Exposure to Drug, 7 Day Outgrowth, Table 8, ranges from multiple assays
# [4] = read-out: MIC NR at 0.01 Inoc. and 3 Day Exposure to Drug, 11 Day Outgrowth, Table 8, ranges from multiple assays
# [5] = 72 h, Table 9, 3 Day Exposure to Drug, read-out: MIC NR 0.01 Inoc.
# [6] = 72 h, Table 9, 3 Day Exposure to Drug, read-out: MIC NR 0.1 Inoc.
# [7] = read-out: minimum inhibitory concentration against replicating M. tuberculosis
# [8] = 3,4-olefinic isomers, read-out: minimum inhibitory concentration against non-replicating M. tuberculosis
SMILES,HepG2 Toxicity LD50 (HepG2 cells) [µg/mL],"MIC [1, 3] [µg/mL]","MIC [1, 4] [µg/mL]","MIC ([2]; Table 9, read-out: MIC R) [µg/mL]",HepG2 LD50 (HepG2 cells) [µg/mL],"MIC [1, 5] [µg/mL]","MIC [1, 6] [µg/mL]","MIC [2, 7] [µg/mL]","MIC [1, 8] [µg/mL]"
CC1=C(C(=O)OCc2ccccc2)N2C(=O)[C@@H](NC(=O)CCc3ccc(Cl)cc3)[C@H]2SC1 [Compound 100],50,0.39,0.78,–,–,–,–,–,–
COc1ccc(CCC(=O)N[C@@H]2C(=O)N3C(C(=O)OCc4ccccc4)=C(C)CS[C@H]23)cc1 [Compound 101],>100,0.39,0.78,–,–,–,–,–,–
CC1=C(C(=O)OCc2ccccc2)N2C(=O)[C@@H](NC(=O)COc3ccc(Cl)cc3)[C@H]2SC1 [Compound 102],>100,0.78,1.56,–,–,–,–,–,–
COc1ccc(OCC(=O)N[C@@H]2C(=O)N3C(C(=O)OCc4ccccc4)=C(C)CS[C@H]23)cc1 [Compound 103],>100,0.78,1.56,–,–,–,–,–,–
CC1=C(C(=O)OCc2ccccc2)N2C(=O)[C@@H](NC(=O)COc3ccccc3)[C@H]2SC1 [Compound 104],>100,1.56,3.13,–,–,–,–,–,–
C#CCOC(=O)N[C@@H]1C(=O)N2C(C(=O)OCC#C)=C(C)CS[C@H]12 [Compound 105],>100,6.25,12.5,–,–,–,–,–,–
C#CCOC(=O)C1=C(C)CS[C@@H]2[C@H](N(CC#C)CC#C)C(=O)N12 [Compound 106],100,12.5,25,–,–,–,–,–,–
C=CC1=C(C(=O)O)N2C(=O)[C@@H](NC(=O)/C(=N\O)c3csc(N)n3)[C@H]2SC1 [Compound 107],>100,50,50,–,–,–,–,–,–
COc1ccc(CCC(=O)N[C@@H]2C(=O)N3C(C(=O)O)=C(C)CS[C@H]23)cc1 [Compound 108],–,–,–,> 100,>100,> 100,> 100,–,–
CC1=C(C(=O)O)N2C(=O)[C@@H](NC(=O)COc3ccccc3)[C@H]2SC1 [Compound 109],–,–,–,> 100,>100,100,> 100,–,–
CCCCOc1ccc(CCC(=O)N[C@@H]2C(=O)N3C(C(=O)O)=C(C)CS[C@H]23)cc1 [Compound 110],–,–,–,100,>100,100,> 100,–,–
CC1=C(C(=O)O)N2C(=O)[C@@H](NC(=O)CCc3ccc(Br)cc3)[C@H]2SC1 [Compound 111],–,–,–,100,>100,> 100,> 100,–,–
CC1=C(C(=O)O)N2C(=O)[C@@H](NS(=O)(=O)Cc3ccccc3)[C@H]2SC1 [Compound 112],–,–,–,> 100,>100,> 100,> 100,–,–
CC1=C(C(=O)O)N2C(=O)[C@@H](NC(=O)CCc3ccc(F)cc3)[C@H]2SC1 [Compound 113],–,–,–,100,>100,> 100,> 100,–,–
CC1=C(C(=O)O)N2C(=O)[C@@H](NC(=O)c3ccc(Cl)cc3)[C@H]2SC1 [Compound 114],–,–,–,> 100,>100,> 100,> 100,–,–
CC1=C(C(=O)O)N2C(=O)[C@@H](NC(=O)Cc3ccc(Cl)cc3)[C@H]2SC1 [Compound 115],–,–,–,100,>100,> 100,> 100,–,–
CC1=C(C(=O)O)N2C(=O)[C@@H](NC(=O)CCc3ccccc3Cl)[C@H]2SC1 [Compound 116],–,–,–,> 100,>100,> 100,> 100,–,–
CCCNC(=O)C1=C(C)CS[C@@H]2[C@H](NC(=O)CCc3ccc(OC)cc3)C(=O)N12 [Compound 117],–,–,–,> 100,>100,100,> 100,–,–
CCCCOC(=O)C1=C(C)CS[C@@H]2[C@H](NC(=O)COc3ccccc3)C(=O)N12 [Compound 118],–,–,–,–,–,–,–,100,3.1
CCCCOC(=O)C1C(C)=CS[C@@H]2[C@H](NC(=O)COc3ccccc3)C(=O)N12 (some centres unmarked) [Compound 119],–,–,–,–,–,–,–,100,3.1
